Laboratory results as given in patent publication US20230103965A1, “NOVEL ACTIVATORS OF THE LIPIDATING TRANSPORTER ATP BINDING CASSETTE PROTEIN TYPE 1 (AB-CA1) AND THERAPEUTIC USES THEREOF” (RAMOT AT TEL-AVIV UNIVERSITY LTD., priority 2020, published 2023).

Columns and labels:
ECD1 of ABCA1 [1] = biological target: T1, ECD1 of ABCA1 (Homo sapiens, UniProt O95477); assay: Microscale thermophoresis (MST) binding, labelled protein
T1 construct: The proteins used in these experiments were Extra-Cellular Domain 1 (ECD1) of ABCA1 and Extra-Cellular Domain 2 (ECD2); purchased Biomatick
T1 sequence (O95477 43-639 limits assumed): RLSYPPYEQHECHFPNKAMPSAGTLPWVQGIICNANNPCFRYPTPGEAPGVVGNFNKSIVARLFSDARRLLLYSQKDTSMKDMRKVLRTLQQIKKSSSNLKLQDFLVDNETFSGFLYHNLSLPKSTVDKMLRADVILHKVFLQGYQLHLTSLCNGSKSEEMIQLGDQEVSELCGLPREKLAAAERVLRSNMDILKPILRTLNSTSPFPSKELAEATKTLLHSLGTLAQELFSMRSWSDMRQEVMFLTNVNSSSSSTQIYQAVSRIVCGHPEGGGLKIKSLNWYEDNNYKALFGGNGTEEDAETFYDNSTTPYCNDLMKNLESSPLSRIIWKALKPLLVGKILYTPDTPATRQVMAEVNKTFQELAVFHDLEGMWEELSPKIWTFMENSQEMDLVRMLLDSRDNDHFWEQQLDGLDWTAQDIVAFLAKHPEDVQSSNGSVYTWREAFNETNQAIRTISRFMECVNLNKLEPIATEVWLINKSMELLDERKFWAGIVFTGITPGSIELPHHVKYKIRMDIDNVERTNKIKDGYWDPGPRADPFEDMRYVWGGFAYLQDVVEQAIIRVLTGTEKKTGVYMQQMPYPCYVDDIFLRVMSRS
Description: (§1) Microscale thermophoresis (MST) measurements. MST measurements of the binding of the HTS hits to the extracellular domain (ECD) of ABCA1 were performed by two complimentary methods utilizing either fluorescently labeled proteins or the endogenous fluorescence of unlabeled proteins. This was pursued as follows:
The buffers of protein samples were exchanged on a desalting PD-10 column to MST labelling buffer (Nanotemper Technologies, NT.115). Each protein was labeled with Alexa Fluor 650 succinimidyl-ester (Thermo Fisher Scientific) in 3-fold excess and then incubated for 1 hr in the dark at room temperature. Excess dye was removed by PD-10 desalting columns. […] Protein-compound interactions were analyzed by microscale thermophoresis. […] Hits were prepared at the highest concentration soluble in MST buffer (Nanotemper)+10% DMSO. Next, hits were diluted by 2 in 16 consecutive tubes of 10 μl per tube. Then, 10 μl of the protein were added to each tube and centrifuged in 12,000 rpm for 10 minutes. Finally, the samples were loaded to the capillaries and were inserted to the MST machine. Experiments were performed on a microMonolith NT.115 Blue/Red (NanoTemper Technologies) in duplicates. Measurements were performed in standard glass capillaries (NanoTemper Technologies). […] All dissociation constants (KD) were calculated to a binding model assuming a 1:1 stoichiometry per binding partner.
(§2) The experiments were performed with the purified extracellual domains 1 (ECD1) and 2 (ECD2) of ABCA1 [18]. Two complementary MST tests were performed, in which either the proteins were labeled with a fluorescence moiety or the endogenous fluorescence of the unlabeled proteins was monitored).

ECD2 of ABCA1 = biological target: T2, ECD2 of ABCA1 (Homo sapiens, UniProt O95477); assay: Microscale thermophoresis (MST) binding to ECD2
T2 construct: The proteins used in these experiments were Extra-Cellular Domain 1 (ECD1) of ABCA1 and Extra-Cellular Domain 2 (ECD2); purchased Biomatick
T2 sequence (O95477 1372-1656 limits assumed): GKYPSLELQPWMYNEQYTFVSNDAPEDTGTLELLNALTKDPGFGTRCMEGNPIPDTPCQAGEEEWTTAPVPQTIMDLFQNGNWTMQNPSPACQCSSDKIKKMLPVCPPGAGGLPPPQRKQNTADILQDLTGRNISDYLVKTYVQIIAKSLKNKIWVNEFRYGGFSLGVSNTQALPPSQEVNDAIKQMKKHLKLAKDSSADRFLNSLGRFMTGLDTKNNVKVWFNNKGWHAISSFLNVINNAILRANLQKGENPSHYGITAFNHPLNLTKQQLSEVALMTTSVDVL
Description: as §1
(i) MST utilizing labeled proteins: The proteins used in these experiments were Extra-Cellular Domain 1 (ECD1) of ABCA1 and Extra-Cellular Domain 2 (ECD2) which were provided by the manufacturer (Biomatick) at a concentration of 7.1 μM. The buffers of protein samples were exchanged on a desalting PD-10 column to MST labelling buffer (Nanotemper Technologies, NT.115). […] The concentrations of the labeled protein samples solutions were determined by Spectrophotometer (Carey 60) at 280 nm and 650 nm and adjusted to a final concentration 7.1 μM, aliquoted in 30 μl and stored at −80° C. for further use. Protein-compound interactions were analyzed by microscale thermophoresis. […] All dissociation constants (KD) were calculated to a binding model assuming a 1:1 stoichiometry per binding partner. […]
These experiments employed the MST ligand binding to protein assay (FIG. 13 and EXAMPLE 1). […] Two complementary MST tests were performed, in which either the proteins were labeled with a fluorescence moiety or the endogenous fluorescence of the unlabeled proteins was monitored).

ABCA1 = biological target: T3, ABCA1 (Homo sapiens, UniProt O95477); assay: Target recognition: binding to ABCA1 (summary of labelled and label free MST)
T3 construct: The proteins used in these experiments were Extra-Cellular Domain 1 (ECD1) of ABCA1 and Extra-Cellular Domain 2 (ECD2); purchased Biomatick
T3 sequence (O95477 43-639 limits assumed): T1 sequence (O95477 43-639 limits assumed)
Description: as §1, §2
A. HTS Screening and Target Recognition • 1.

ECD1 of ABCA1 [2] = biological target: T1, ECD1 of ABCA1; assay: Microscale thermophoresis (MST) binding, label free protein; details: unlabelled ECD1
Description: as §1, §2

Structure (SMILES) | Binding to ECD1 (Labelled MST) Amplitude (ECD1 of ABCA1 [1]) | Kd (ECD1 of ABCA1 [1]) | MST binding to ECD2 (ECD2 of ABCA1) | MST binding to ECD1 (ABCA1) | Binding to ECD1 (Label free MST) Amplitude (ECD1 of ABCA1 [2]) | Kd (ECD1 of ABCA1 [2])
Cc1nn(CC(=O)c2ccc(Br)s2)c(C)c1[N+](=O)[O-] [Hit #3] | 10.85 a.u. | 278 µM | do not bind at all | bind saturably to ECD1 | 39.96 a.u. | 178 µM
CC(C)(C)C(=O)COC(=O)c1ccccc1SCc1cc(-c2ccco2)on1 [Hit #4] | 13.63 a.u. | 27 µM | do not bind at all | bind saturably to ECD1 | 16.45 a.u. | > 350 µM
O=[N+]([O-])c1ccc(N2CCCCC2)c2nonc12 [Hit #7] | 22.05 a.u. | – | – | scored positively | – | –
C[C@]12CC[C@@H](O)CC1CCC1C2CC[C@](C)(C(=O)O)C1/C=C1/Nc2ccccc2C1=O (some centres unmarked) [Hit #12] | 9.05 a.u. | 11 µM | – | – | 90.25 a.u. | 314 µM
CSC(SC)=C1CC/C(=C/c2ccc(N(C)C)cc2)C1=O [Hit #14] | 0 a.u. | – | – | – | 0 a.u. | –
